From publication PMC8405639, “2-Carba-lysophosphatidic acid is a novel β-lysophosphatidic acid analogue with high potential for lysophosphatidic acid receptor activation and autotaxin inhibition” (Scientific Reports, 2021)

Assays:
hLPA5 = target: T1, hLPA5 (Homo sapiens, UniProt Q9H1C0); test: TGFα-shedding assay, LPA5; assay type: cell-based; details: 293A cells, AP-TGFα release; for EC50: 1 h, with Ki16425 10 μM; for Emax: read-out: Emax ± SEM hLPA5 (converted)
T1 construct: expressed in transfected cells; host or cells: 293A cells
Procedure: (§1) 293A cells expressing LPA receptors were stimulated with the indicated concentration of LPA, 2carbaLPA, and cPA analogues. Receptor-specific alkaline phosphatase-tagged transforming growth factor-α release was calculated by subtracting the responses in the empty vector-transfected cells from those in the receptor-expressing cells. Data are represented as standard error of the mean of three independent replicates.
(§2) 293A cells (Life Technologies, Tokyo, Japan) were cultured in DMEM (Nissui Pharmaceutical, Tokyo, Japan) supplemented with 10% foetal calf serum (Gibco, Waltham, MA, USA) in an incubator at 37 °C and 5% CO2. This assay was conducted according to a modified version of a method described previously. […] The cells were co-transfected with vectors-expressing human LPA1–6, alkaline phosphatase-tagged TGFα (AP-TGFα). As negative controls, cells transfected with an empty vector instead of the receptor-expressing vector were used. After 24 h, the cells were resuspended in Hank’s balanced salt solution (HBSS), seeded in 96-well plates, and stimulated with cPA analogues administered at tenfold concentration of the final concentration. The cPA analogues were diluted with HBSS, 0.01% protease and fatty acid-free BSA (SERVA Electrophoresis GmbH, Heidelberg, Germany). Cells for LPA4, LPA5, and LPA6 analysis were treated with Ki16425 (final concentration: 10 μM), 5 min before treatment with the cPA analogues. After incubation for 1 h at 37 °C, 80 µL of the supernatant was transferred to fresh 96-well plates. An equal volume of 1 mM p-NPP solution [120 mM Tris–HCl (pH 9.5), 40 mM NaCl, and 10 mM MgCl2] was added to both the supernatant and the cells. Alkaline phosphatase activity was calculated by measuring absorbance at 405 nm using the Cytation 3 plate reader (BioTek, Winooski, VT, USA).

human recombinant ATX = target: T2, human recombinant ATX (Homo sapiens, UniProt Q13822); test: Choline oxidase assay of LPC cleavage by ATX; assay type: biochemical; details: LPC 16:0 300 µM, ATX 50 nM, 2 h, 37 °C, various concentrations
T2 construct: purchased Cayman Chemical
Procedure: (a) Concentration–response curves for the inhibition of ATX activity as measured by the […] of the substrate lysophosphatidylcholine (LPC) using choline oxidase and peroxidase. LPC 16:0 (final concentration: 300 µM, above its critical micellar concentration [CMC]), human recombinant ATX (final concentration: 50 nM), and various concentrations of cPA analogues were used for incubation with 4-aminoantipyrine, TOOS (final concentration: 0.05% (w/v) each), choline oxidase and peroxidase (final concentration: 10 U/mL each) in the ATX assay buffer. […] Inhibition was calculated as percentage (%) of reduction in absorbance compared with absorbance in the vehicle control (without cPA analogues) after subtraction of the value measured at time 0. Data are represented as mean ± standard deviation (n = 3–4 samples). (b) Inhibition of ATX activity measured by lysophosphatidic acid (LPA 16:0) production via liquid chromatography coupled to triple quadrupole mass spectrometry (LC-QqQ). The substrate LPC 16:0 (final concentration: 300 µM) was incubated with human recombinant ATX (final concentration: 50 nM) and cPA analogues (final concentration: 10 μM) for 2 h at 37 °C. The ATX product, LPA 16:0, was quantified by LC-QqQ. Inhibition was calculated as percentage (%) of reduction in LPA production compared with LPA production in the vehicle control (without cPA analogues). Data are represented as mean ± standard deviation (n = 5–6 samples).
Human recombinant ATX (50 nM final concentration, 5 µL in ATX assay buffer: 50 mM Tris, 140 mM NaCl, 5 mM KCl, 1 mM CaCl2, 1 mM MgCl2, pH 8.0) and cPA analogues (5 µL each in ATX assay buffer) at various concentrations were added in a 96-well plate and mixed with 90 µL of LPC 16:0 (final concentration: 300 µM) as substrate, 4-aminoantipyrine, TOOS (final concentration: 0.05% w/v each), choline oxidase and peroxidase (final concentration: 10 units/mL each) in ATX assay buffer. […] Inhibition was calculated as a percentage (%) of reduction in absorbance compared to absorbance in the vehicle control (without cPA analogues) after subtraction of the value measured at time 0.

hLPA2 = target: T3, hLPA2 (Homo sapiens, UniProt Q9HBW0); test: TGFα-shedding assay, LPA2; assay type: cell-based; details: 293A cells, AP-TGFα release; for EC50: 1 h; for Emax: read-out: Emax ± SEM hLPA2 (converted)
T3 construct: expressed in transfected cells; host or cells: 293A cells
Procedure: as §1, §2

hLPA6 = target: T4, hLPA6 (Homo sapiens, UniProt P43657); test: TGFα-shedding assay, LPA6; assay type: cell-based; details: 293A cells, AP-TGFα release; for EC50: 1 h; for Emax: read-out: Emax ± SEM hLPA6 (converted)
T4 construct: expressed in transfected cells; host or cells: 293A cells
T4 sequence (P43657 1-344): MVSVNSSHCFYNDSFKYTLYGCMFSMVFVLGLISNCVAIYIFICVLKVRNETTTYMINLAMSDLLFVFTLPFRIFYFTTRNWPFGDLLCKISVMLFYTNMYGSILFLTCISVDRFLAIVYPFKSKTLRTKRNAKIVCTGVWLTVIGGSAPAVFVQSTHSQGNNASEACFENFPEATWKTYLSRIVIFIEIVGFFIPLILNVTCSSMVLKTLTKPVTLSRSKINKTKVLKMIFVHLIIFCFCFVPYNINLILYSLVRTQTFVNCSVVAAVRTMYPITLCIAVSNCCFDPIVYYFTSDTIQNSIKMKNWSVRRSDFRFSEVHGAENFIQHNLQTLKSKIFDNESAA
Procedure: as §1, §2

hLPA3 = target: T5, hLPA3 (Homo sapiens, UniProt Q9UBY5); test: TGFα-shedding assay, LPA3; assay type: cell-based; details: 293A cells, AP-TGFα release; for EC50: 1 h; for Emax: read-out: Emax ± SEM hLPA3 (converted)
T5 construct: expressed in transfected cells; host or cells: 293A cells
T5 sequence (Q9UBY5 1-353): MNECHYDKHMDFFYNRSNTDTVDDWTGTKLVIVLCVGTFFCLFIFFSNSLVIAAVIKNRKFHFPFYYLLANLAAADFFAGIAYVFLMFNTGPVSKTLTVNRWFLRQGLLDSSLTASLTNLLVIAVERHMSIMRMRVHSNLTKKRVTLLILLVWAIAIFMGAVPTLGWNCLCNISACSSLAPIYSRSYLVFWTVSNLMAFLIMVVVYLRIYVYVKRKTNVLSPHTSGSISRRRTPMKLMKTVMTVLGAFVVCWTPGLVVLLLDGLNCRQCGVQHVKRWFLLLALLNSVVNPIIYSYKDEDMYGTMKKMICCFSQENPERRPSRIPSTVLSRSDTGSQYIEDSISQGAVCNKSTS
Procedure: as §1, §2

T1 sequence (Q9H1C0 whole entry): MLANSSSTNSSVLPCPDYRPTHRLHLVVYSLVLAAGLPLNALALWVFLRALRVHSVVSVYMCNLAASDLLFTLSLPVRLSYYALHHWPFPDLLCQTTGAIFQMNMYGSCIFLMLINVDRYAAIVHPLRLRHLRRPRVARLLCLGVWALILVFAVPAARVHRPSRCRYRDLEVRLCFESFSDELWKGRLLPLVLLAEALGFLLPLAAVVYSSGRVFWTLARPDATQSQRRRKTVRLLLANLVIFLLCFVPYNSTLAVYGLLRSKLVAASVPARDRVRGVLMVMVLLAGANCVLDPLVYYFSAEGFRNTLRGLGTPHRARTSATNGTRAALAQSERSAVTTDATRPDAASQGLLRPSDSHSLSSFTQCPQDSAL
T3 sequence (Q9HBW0 whole entry): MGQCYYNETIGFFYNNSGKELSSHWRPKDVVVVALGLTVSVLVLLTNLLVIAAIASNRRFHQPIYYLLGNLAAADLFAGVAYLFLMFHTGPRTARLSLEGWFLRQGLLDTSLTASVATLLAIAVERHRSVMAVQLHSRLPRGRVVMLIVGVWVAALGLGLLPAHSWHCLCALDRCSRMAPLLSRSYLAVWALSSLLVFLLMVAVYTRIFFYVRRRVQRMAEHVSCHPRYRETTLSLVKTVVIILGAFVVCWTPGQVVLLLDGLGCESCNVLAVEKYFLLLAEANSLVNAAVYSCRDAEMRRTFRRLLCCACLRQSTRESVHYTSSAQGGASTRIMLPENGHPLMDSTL

Row | SMILES | EC50 (hLPA5) | Emax (hLPA5) | EC50 (hLPA2) | Emax (hLPA2) | EC50 (hLPA6; with Ki16425 10 μM) | Emax (hLPA6) | EC50 (hLPA3) | Emax (hLPA3) | EC50 (hLPA2; bound) | EC50 (hLPA6; bound) | Inhibition of lysoPLD activity of ATX (choline oxidase assay) (human recombinant ATX)
1 | CCCCCCCC/C=C\CCCCCCCC(=O)OCC1COP(=O)(O)C1 (stereo not shown) [2ccPA 18:1, 2-carba-cyclic phosphatidic acid] | 973 nM | 31.7% |  |  |  |  | 286 nM | 30.8% | > 3000 nM | > 3000 nM | inhibited the lysoPLD activity of ATX in a dose-dependent manner
2 | CCCCCCCC/C=C\CCCCCCCC(=O)OC[C@@H]1CCP(=O)(O)O1 [3ccPA 18:1, 3-carba-cyclic phosphatidic acid] | 2230 nM | 51.2% | 2600 nM | 53.2% |  |  |  | 37.4% |  | > 3000 nM | lower inhibitory activity than the other analogues, except for LPA and cPA
3 | CCCCCCCC/C=C\CCCCCCCC(=O)OC[C@@H]1COP(=O)(O)O1 [cPA 18:1, 1-Oleoyl-cPA] | 354 nM | 35.6% | 1070 nM | 35.9% |  |  | 439 nM | 16.8% |  | > 3000 nM | significantly lower inhibitory activity

The next compounds have a lower EC50 (hLPA5) than those just listed; values first:

Row | EC50 (hLPA5) | Emax (hLPA5) | EC50 (hLPA2) | Emax (hLPA2) | EC50 (hLPA6; with Ki16425 10 μM) | Emax (hLPA6) | EC50 (hLPA3) | Emax (hLPA3) | EC50 (hLPA2; bound) | EC50 (hLPA6; bound) | SMILES | Inhibition of lysoPLD activity of ATX (choline oxidase assay) (human recombinant ATX)
4 | 50.2 nM | 38.3% | 256 nM | 35.8% | 90.9 nM | 29.3% | 11.6 nM | 42.7% |  |  | CCCCCCCC/C=C\CCCCCCCC(=O)OCC(CO)CP(=O)(O)O (stereo not shown) [2carbaLPA 18:1, 2-carba-lysophosphatidic acid] | inhibited the lysoPLD activity of ATX in a dose-dependent manner
5 | 89.3 nM | 35.5% | 28.3 nM | 30.7% | 132 nM | 27.1% | 5.6 nM | 44.3% |  |  | CCCCCCCC/C=C\CCCCCCCC(=O)OC[C@@H](O)CCP(=O)(O)O [3carba LPA 18:1, 3-carba-lysophosphatidic acid] | inhibited the lysoPLD activity of ATX in a dose-dependent manner
